Source: patent US7842808B2, “Anti-migraine spirocycles” (Bristol-Myers Squibb Company, priority 2002, dated 2010)

Columns and labels:
[1] = target: T1, human CGRP receptor (SK-N-MC cells) (Homo sapiens, UniProt O60894+Q16602); assay: Cyclic AMP Assay, functional antagonism of CGRP-induced cyclic AMP formation; type: cell-based; details: SK-N-MC cells, 0.3 nM CGRP; read-out: cAMP Function IC50
T1 construct: SK-N-MC cells that endogenously express the human CGRP receptor; endogenous in cells; host or cells: SK-N-MC cells
How it was run: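 SK-N-MC cells, which endogenously express human CGRP receptor, stimulated with 0.3 nM CGRP with or without compound for 30 min at room temperature. Cellular cAMP extracted by lysis and quantified by SPA radioimmunoassay; IC50 from inhibition of CGRP-induced cAMP.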

[2] = system: human cerebral vessels (CGRP-induced dilation); assay: Ex Vivo Human Cerebral Artery Assay, reversal of CGRP-induced relaxation; details: reversal of 1 nM hCGRP-induced relaxation, vessels pre-contracted with 10 mM KCl
How it was run: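 Autopsy human cerebral artery rings (4-5 mm) in Krebs buffer, 37 °C, pH 7.4, carbogen; primed with 100 mM KCl, pre-contracted with 10 mM KCl and fully dilated with 1 nM hCGRP. Antagonists added cumulatively in half-log steps; tension recorded as % reversal of CGRP relaxation, EC50 by four-parameter logistic fit per vessel.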

[3] = target: T2, CGRP receptor (SK-N-MC cell membranes) (Homo sapiens, UniProt O60894+Q16602); assay: CGRP Binding Assay ([125I]-CGRP radioligand binding, SK-N-MC homogenate); details: displacement of [125I]-CGRP, SK-N-MC homogenate; read-out: CGRP binding IC50
T2 construct: endogenous in cells; host or cells: SK-N-MC cells (membrane homogenate)
T2 sequence (Q16602 23-461): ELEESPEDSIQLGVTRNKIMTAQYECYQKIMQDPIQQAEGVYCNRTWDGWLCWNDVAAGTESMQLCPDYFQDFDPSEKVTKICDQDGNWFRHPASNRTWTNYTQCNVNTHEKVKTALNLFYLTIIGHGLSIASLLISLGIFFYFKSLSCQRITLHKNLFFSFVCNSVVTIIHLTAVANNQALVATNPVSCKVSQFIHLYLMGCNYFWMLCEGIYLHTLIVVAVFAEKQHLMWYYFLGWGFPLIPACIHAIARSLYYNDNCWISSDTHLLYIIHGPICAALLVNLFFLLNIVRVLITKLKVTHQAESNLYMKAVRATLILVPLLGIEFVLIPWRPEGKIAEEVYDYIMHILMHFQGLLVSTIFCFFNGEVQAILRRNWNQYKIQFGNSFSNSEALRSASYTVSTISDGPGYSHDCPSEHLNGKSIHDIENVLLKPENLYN
T2 sequence (O60894 27-148): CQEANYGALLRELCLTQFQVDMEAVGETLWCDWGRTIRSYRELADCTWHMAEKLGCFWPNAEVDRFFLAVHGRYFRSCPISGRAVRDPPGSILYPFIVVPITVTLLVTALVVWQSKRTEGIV

T1 sequence (Q16602 23-461): as the sequence (Q16602 23-461) above
T1 sequence (O60894 27-148): as the sequence (O60894 27-148) above

Cc1cc(CC(CC(=O)N2CCC(N3Cc4ccccc4NC3=O)CC2)C(=O)N2CCC(N3CCCCC3)CC2)cc2cn[nH]c12 (racemic) [Example 69, (±)-1-[1,4′]Bipiperidinyl-1′-yl-2-(7-methyl-1H-indazol-5-ylmethyl)-4-[4-(2-oxo-1,4-dihydro-2H-quinazolin-3-yl)-piperidin-1-yl]-butane-1,4-dione]
< 10 nM: IC50 [1] | EC50 [2] | IC50 [3]

Cc1cc(CC(NC(=O)N2CCC(N3Cc4ccccc4NC3=O)CC2)C(=O)N2CCC(N3CCCCC3)CC2)cc2cn[nH]c12 (racemic) [Example 16, (±)-4-(2-Oxo-1,4-dihydro-2H-quinazolin-3-yl)-piperidine-1-carboxylic acid[2-[1,4′]bipiperidinyl-1′-yl-1-(7-methyl-1H-indazol-5-ylmethyl)-2-oxo-ethyl]-amide]
< 10 nM: IC50 [1] | EC50 [2] | IC50 [3]
